Results reported in ChEMBL document CHEMBL1201862, “PubChem BioAssay data set” (2004).
Calls of active or inactive are those of the source.

Tests used:
[1] = molecular target: Luciferin 4-monooxygenase (Photinus pyralis, UniProt P08659); assay: firefly luciferase enzyme inhibitors, dose response, biochemical, luminescence (AID 1891)
[2] = Luminescence Cell-Based Dose Confirmation HTS to Identify Inhibitors of Platelet Dense Granule Release. [Related pubchem assays: 1663 (Primary HTS), 1678 (Summary of Project)]; format: functional
[3] = molecular target: COUP transcription factor 2 (Homo sapiens, UniProt P24468); assay: Luminescence-based cell-based high throughput dose response assay to identify inhibitors of COUP-TFII (NR2F2).; format: functional;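 further: HEK293 cells transiently cotransfected with COUP-TFII expression vector and reporter; luciferase reporter luminescence driven by COUP-TFII from the pX2-168 reporter plasmid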
Paired box protein Pax-8 = Paired box protein Pax-8 (Homo sapiens, UniProt Q06710); assay: inhibitors of PAX8-driven TPO luciferase reporter, dose response, RMG-I cells, cherry-pick (AID 687027); format: functional, cell-based;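 further: luciferase reporter driven by Pax8 target thyroperoxidase promoter measured by SteadyGlo luminescence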
[4] = Luminescence-based counterscreen assay for KLF5 inhibitors: dose response cell-based high throughput screening assay to identify cytotoxic compounds using the IEC-6 intestinal epithelial cell line. [Related pubchem assays: 1700 (Primary screen.), 1834 (Confirmation screen.), 1858 (Summary AID.), 1905 (Counterscreen.)]; format: functional
[5] = molecular target: Voltage-gated inwardly rectifying potassium channel KCNH2 (Homo sapiens, UniProt Q12809); assay: hERG protection from proarrhythmic block, potency, dose response, cell-based, thallium flux (AID 2121); format: ADME
[6] = C. albicans growth with fluconazole, confirmation, fluorescence, retest (AID 2467); format: functional, cell-based
[7] = NIH-3T3 fibroblast cytotoxicity, dose response, cytotoxicity control, cell-based, fluorescence, Alamar Blue, secondary assay (AID 2327); format: functional;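 further: NIH-3T3 mouse fibroblasts cultured with fluconazole at 8 µg/mL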
[8] = cytotoxicity in HPDE-C7 cells, cell-based, fluorescence, HTS (AID 430); format: functional; details: Homo sapiens
[9] = cytotoxicity in KRAS-transformed pancreatic duct cells, primary screen, cell-based, fluorescence, HTS (AID 431); format: functional; details: Homo sapiens;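 further: cell line used: HPDE-C7K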
Cytochrome P450 2D6 = Cytochrome P450 2D6 (Homo sapiens, UniProt P10635);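 further: CYP2D6 member of a cytochrome P450 panel assay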
[10] = Glucagon-like peptide 1 release potency, NCI-H716 cell line, dose-response, half-maximal inhibitory concentration (AID 1117344); format: functional, cell-based
[11] = half-maximal inhibitory concentration for glucagon-like peptide-1 release, STC-1 cell line, dose-response (AID 1117345); format: functional, cell-based
Cytochrome P450 1A2 = molecular target: T1, Cytochrome P450 1A2 (Homo sapiens, UniProt P05177);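 further: PubChem cytochrome P450 panel assay, CYP1A2 panel member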
T1 sequence (P05177 whole entry): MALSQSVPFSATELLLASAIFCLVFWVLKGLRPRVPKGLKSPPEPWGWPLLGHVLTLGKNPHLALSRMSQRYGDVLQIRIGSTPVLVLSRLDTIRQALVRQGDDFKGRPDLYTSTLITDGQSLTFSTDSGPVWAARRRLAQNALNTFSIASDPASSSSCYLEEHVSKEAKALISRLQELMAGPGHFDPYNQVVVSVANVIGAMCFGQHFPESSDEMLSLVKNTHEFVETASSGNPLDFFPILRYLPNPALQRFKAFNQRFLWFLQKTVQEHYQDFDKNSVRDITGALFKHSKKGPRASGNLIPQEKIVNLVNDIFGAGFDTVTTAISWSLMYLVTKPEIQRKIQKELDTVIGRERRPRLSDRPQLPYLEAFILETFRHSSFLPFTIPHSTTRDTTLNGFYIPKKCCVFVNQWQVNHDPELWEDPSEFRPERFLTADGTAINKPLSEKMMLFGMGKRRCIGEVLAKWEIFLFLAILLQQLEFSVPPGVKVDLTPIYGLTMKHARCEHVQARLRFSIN

[12] = non-specific cell cytotoxicity, dose response, cytotoxicity control for PAX8 inhibitor project, plate reader, dry powder samples (AID 743021); format: functional, cell-based
[13] = A2780 ovarian cancer cell cytotoxicity, dose response, cytotoxicity control, plate reader, dry powder samples (AID 743046); format: functional, cell-based
[14] = NIH:OVCAR-3 ovarian cancer cell cytotoxicity, dose response, PAX8 inhibitor project, plate reader, dry powder samples (AID 743044); format: functional, cell-based
[15] = cytotoxicity in OVCAR8 ovarian cancer cells, dose response, PAX8 project, cell-based, plate reader, dry powder samples (AID 743197); format: functional; details: OVCAR-8
[16] = IOSE-T80 ovarian epithelial cell cytotoxicity, dose response, cytotoxicity control for PAX8 inhibitor project, plate reader, dry powder samples (AID 743045); format: functional, cell-based
[17] = IGROV1 ovarian cancer cell cytotoxicity, dose response, PAX8 inhibitor project, plate reader, dry powder samples (AID 743043); format: functional, cell-based; details: IGROV-1
HEK293 [18] = assay: cells; format: functional, cell-based; details: Homo sapiens
[19] = HepG2 cell cytotoxicity, dose response, cytotoxicity control for Shn3 inhibitor project, CellTiter-Glo, cherry-picked (AID 624134); format: functional, cell-based
HEK293 [20] = assay: NOD1 signaling inhibitors, primary screen, cell-based, luminescence, uHTS (AID 1578); format: functional; details: Homo sapiens
HEK293 [21] = assay: cells; format: functional, cell-based; details: Homo sapiens; remark: listed apart in the source
[22] = Shn3 3'UTR reporter inhibitors, dose response, cell-based, Clone20 osteoblasts, firefly luciferase, cherry-picked (AID 624132); format: functional;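 further: firefly luciferase luminescence from reporter carrying the Shn3 3'UTR in osteoblasts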
HEK293 [23] = assay: cells; format: functional, cell-based; details: Homo sapiens; remark: listed apart in the source
HEK293 [24] = assay: NOD2 signaling inhibitors in MDP-stimulated cells, cell-based, uHTS, luminescence (AID 2001); format: functional; details: Homo sapiens
INS1 = assay: beta cell apoptosis inhibitors, cytokine rescue, dose response, luminescence, retest (AID 449756); format: functional, cell-based;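 further: cell death triggered by IL-1 beta plus TNF-alpha plus IFN-gamma mixture; protective hits raise ATP signal compared with cytokine alone wells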
[25] = molecular target: Nucleotide-binding oligomerization domain-containing protein 2 (Homo sapiens, UniProt Q9HC29); assay: NOD2 signaling inhibitors, cell-based, luminescence, uHTS, HEK293 (AID 1566); format: functional
[26] = reduction of Shn3 3'UTR firefly luciferase signal, dose response, Schnurri-3 inhibitor project, cell-based, Clone20 osteoblasts, cherry-pick, set 2 (AID 720490); format: functional;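 further: actives lower the luminescence signal as inhibitors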
[27] = cytotoxicity in HEK-293T cells, dose response, cytotoxicity control for BCR NF-kB inhibitor project, luminescence, B-cell screen hits (AID 489021); format: functional, cell-based;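 further: HEK-293T cells carrying an NF-kB luciferase reporter; cells exposed to compound for about 14 hours before viability readout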
[28] = P. falciparum late gametocyte killing, dose response, luminescence (AID 1117278); format: functional, cell-based;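 further: gametocytes exposed to compound for 24 hours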
[29] = Jurkat T cell cytotoxicity, dose response, cytotoxicity control for P. falciparum gametocyte viability project, luminescence (AID 1117277); format: functional, cell-based;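 further: potency reflects loss of cellular ATP meaning fewer viable cells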
Prothrombin = Prothrombin (Homo sapiens, UniProt P00734); assay: Thrombin 1536 HTS Dose Response Confirmation. [Related pubchem assays: 1046 (Thrombin 1536 HTS; hits were confirmed in this assay)]; format: functional
[30] = YAP1 pathway inhibition via CTGF transcript levels, dose response, cell-based, DLD1 colon cancer, RT-qPCR, cherry-pick (AID 1053122); format: functional; details: Cancer cell lines
[31] = human group III sPLA2 inhibitors, dose response, biochemical, QFRET, IC50 (AID 743457);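 further: green fluorescence rise as the enzyme cleaves BODIPY PC-A2 in liposomes; potency for inhibition of the enzyme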
Beta-galactosidase = Beta-galactosidase (Escherichia coli, UniProt Q8VNN2); assay: beta-galactosidase enzyme inhibitors and activators, dose response, artefact control for CCR6 antagonist project, biochemical, E. coli enzyme, set 3 (AID 504712); format: functional
Cytochrome P450 3A4 = Cytochrome P450 3A4 (Homo sapiens, UniProt P08684);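 further: CYP3A4 tested as one member of a cytochrome P450 panel screen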
Cytochrome P450 2C9 = Cytochrome P450 2C9 (Homo sapiens, UniProt P11712)
[32] = inhibitors of PGC1a acetylation in cells, dose response, cell-based, cherry-picked samples (AID 720514); format: functional;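 further: potency may reflect raised or lowered acetylation signal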

Voltage-gated inwardly rectifying potassium channel KCNH2, sequence (Q12809 whole entry): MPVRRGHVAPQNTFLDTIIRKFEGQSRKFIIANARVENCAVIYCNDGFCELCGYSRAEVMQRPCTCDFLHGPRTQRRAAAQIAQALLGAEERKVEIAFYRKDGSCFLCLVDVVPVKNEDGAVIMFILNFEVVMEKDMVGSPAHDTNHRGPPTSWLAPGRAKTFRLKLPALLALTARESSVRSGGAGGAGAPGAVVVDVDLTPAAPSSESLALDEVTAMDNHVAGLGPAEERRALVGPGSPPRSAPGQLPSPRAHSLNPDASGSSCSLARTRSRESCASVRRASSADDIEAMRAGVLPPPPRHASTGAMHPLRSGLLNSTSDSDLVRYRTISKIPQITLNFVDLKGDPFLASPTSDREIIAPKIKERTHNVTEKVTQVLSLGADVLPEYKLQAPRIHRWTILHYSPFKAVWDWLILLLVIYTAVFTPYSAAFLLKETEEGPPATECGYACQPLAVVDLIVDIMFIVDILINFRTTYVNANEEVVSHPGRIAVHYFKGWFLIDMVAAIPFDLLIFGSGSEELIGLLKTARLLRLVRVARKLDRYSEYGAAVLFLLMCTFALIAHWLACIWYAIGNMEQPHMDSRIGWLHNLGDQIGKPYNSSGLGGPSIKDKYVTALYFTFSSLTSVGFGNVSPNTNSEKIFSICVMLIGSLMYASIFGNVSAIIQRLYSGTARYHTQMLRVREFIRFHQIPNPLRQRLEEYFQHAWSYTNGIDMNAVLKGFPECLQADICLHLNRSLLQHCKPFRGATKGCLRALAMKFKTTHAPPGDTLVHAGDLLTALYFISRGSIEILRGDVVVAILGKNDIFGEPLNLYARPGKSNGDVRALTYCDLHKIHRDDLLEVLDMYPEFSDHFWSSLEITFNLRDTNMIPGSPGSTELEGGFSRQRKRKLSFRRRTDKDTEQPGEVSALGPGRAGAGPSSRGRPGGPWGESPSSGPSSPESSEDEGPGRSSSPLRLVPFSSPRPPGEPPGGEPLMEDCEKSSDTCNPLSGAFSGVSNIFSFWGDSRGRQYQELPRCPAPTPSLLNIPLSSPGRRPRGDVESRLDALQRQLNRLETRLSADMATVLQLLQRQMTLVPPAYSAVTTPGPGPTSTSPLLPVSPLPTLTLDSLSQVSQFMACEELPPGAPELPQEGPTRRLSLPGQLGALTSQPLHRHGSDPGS
COUP transcription factor 2, sequence (P24468 whole entry): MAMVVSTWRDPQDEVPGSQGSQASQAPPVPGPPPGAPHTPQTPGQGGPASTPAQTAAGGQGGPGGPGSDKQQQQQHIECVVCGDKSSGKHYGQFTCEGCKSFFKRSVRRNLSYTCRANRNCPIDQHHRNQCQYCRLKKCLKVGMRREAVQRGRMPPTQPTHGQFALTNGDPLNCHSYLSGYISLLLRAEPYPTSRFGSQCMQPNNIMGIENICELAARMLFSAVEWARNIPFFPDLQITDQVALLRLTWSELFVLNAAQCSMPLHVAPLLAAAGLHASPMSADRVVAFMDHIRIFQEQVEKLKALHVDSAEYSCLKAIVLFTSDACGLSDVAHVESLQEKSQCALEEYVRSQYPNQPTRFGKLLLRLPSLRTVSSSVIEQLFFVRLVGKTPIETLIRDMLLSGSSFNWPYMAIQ
Paired box protein Pax-8, sequence (Q06710 whole entry): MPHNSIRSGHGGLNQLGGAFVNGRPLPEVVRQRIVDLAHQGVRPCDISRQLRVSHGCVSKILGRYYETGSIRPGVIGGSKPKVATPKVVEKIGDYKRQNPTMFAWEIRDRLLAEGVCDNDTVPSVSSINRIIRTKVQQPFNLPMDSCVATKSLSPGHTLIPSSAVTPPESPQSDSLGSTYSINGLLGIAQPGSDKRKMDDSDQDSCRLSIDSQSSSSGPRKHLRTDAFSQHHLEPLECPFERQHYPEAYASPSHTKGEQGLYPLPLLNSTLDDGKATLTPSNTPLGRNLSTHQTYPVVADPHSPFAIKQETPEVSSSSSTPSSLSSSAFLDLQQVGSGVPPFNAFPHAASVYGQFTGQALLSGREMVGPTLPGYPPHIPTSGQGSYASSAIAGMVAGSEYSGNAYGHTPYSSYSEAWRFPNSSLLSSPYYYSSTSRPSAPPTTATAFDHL
Cytochrome P450 2C9, sequence (P11712 whole entry): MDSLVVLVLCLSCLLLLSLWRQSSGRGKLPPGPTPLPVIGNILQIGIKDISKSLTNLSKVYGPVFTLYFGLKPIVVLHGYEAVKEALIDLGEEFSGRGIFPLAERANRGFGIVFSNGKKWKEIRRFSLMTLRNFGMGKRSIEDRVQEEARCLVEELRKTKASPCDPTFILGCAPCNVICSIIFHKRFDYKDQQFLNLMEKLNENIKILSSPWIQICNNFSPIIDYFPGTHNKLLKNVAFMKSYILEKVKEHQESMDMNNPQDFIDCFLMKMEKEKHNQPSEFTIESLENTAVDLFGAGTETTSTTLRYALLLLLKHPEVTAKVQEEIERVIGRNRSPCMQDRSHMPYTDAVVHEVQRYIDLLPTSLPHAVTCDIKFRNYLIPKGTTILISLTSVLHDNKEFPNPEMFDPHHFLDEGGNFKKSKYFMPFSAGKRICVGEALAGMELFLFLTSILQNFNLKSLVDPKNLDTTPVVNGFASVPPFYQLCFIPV
Beta-galactosidase, sequence (Q8VNN2 whole entry): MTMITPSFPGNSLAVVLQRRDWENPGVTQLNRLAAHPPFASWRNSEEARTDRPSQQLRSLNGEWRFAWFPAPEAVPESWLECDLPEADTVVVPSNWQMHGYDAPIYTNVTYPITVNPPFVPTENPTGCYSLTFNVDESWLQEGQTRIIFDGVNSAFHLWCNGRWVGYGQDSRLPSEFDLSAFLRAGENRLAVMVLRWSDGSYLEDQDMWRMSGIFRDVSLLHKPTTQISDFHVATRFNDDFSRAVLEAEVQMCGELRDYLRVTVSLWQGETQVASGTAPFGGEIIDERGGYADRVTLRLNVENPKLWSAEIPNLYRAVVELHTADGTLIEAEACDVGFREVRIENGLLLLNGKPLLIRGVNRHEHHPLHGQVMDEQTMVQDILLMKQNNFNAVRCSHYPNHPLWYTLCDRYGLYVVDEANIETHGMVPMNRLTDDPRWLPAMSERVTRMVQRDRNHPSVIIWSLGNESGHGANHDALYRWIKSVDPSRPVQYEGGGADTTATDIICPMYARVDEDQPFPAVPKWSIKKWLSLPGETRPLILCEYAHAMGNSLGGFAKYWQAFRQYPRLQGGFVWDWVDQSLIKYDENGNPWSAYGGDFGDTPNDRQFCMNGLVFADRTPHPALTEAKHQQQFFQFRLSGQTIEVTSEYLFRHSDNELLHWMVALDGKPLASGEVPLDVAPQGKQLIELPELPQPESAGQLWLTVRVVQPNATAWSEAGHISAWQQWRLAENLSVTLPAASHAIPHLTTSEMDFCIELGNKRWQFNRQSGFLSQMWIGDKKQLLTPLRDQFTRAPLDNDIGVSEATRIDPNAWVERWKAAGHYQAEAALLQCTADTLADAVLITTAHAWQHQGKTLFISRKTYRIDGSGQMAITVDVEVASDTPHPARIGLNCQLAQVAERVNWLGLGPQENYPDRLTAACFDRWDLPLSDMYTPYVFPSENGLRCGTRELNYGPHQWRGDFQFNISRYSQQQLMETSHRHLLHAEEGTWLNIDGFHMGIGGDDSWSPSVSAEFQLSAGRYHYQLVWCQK
Luciferin 4-monooxygenase, sequence (P08659 whole entry): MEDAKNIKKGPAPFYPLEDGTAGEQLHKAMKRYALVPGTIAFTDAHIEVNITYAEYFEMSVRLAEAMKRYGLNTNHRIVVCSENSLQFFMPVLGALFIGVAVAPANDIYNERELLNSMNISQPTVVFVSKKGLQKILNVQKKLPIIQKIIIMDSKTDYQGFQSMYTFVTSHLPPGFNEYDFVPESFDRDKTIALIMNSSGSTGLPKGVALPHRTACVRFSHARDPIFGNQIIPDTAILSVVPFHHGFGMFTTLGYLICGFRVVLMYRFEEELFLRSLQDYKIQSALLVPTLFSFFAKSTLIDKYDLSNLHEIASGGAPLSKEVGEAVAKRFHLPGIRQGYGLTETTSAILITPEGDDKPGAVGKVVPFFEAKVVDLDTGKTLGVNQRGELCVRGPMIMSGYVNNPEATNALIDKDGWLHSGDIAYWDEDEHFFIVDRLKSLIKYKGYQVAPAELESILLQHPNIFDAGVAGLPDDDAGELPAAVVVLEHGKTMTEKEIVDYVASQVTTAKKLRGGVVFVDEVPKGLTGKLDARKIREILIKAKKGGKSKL
Cytochrome P450 3A4, sequence (P08684 whole entry): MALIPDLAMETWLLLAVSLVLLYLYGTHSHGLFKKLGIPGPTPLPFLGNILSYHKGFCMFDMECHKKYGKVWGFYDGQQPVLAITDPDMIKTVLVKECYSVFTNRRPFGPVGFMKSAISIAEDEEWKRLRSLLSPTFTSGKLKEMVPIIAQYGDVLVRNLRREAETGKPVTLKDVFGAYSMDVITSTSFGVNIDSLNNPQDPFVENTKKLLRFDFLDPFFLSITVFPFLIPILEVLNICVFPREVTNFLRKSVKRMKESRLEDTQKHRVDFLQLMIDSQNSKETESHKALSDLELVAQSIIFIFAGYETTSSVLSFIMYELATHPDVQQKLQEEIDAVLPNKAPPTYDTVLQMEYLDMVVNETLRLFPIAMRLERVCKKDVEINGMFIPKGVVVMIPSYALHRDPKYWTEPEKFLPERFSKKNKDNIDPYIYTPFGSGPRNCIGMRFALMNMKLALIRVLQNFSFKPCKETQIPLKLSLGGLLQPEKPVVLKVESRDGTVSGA

CCCc1ccc(C(=O)O/N=C(\N)c2ccccn2)cc1
EC50 [1]: 0.407 µM (active)
EC50 [2]: 1.2 µM (active)
IC50 [3]: 22.1 µM (inactive)
AC50 (Paired box protein Pax-8): 5.93 µM (active)
IC50 [4]: 27.8 µM (not active)

CCOc1ccc2nc(N3C(=O)/C(=C/c4ccccc4)NC3=S)sc2c1
EC50 [5]: 0.44 µM (active)
EC50 [6]: 3.03 µM (active)
EC50 [7]: > 150 µM (inconclusive)

Cc1cc(C)nc(NCC(O)CNc2ccccc2Cl)n1 (stereo not given)
EC50 [8]: > 20 µM (not active)
EC50 [9]: > 20 µM (not active)

Cc1c(NC(C)C)c(=O)n(-c2ccccc2)n1C [RAMIFENAZONE]
AC50 (Cytochrome P450 2D6): 12.6 µM (inconclusive)
IC50 [10]: > 40 µM (inactive)
IC50 [11]: > 40 µM (inactive)
AC50 (Cytochrome P450 1A2): 0.0398 µM (inconclusive)

C[C@H](CO)N1C[C@H](C)[C@@H](CN(C)C(=O)Nc2ccc3c(c2)OCO3)Oc2cc(C#Cc3ccncc3)ccc2S1(=O)=O
AC50 [12]: 47.5 µM (active)
AC50 [13]: 10.9 µM (active)
AC50 [14]: 5.21 µM (active)
AC50 [15]: 8.81 µM (active)
AC50 [16]: 5.8 µM (active)
AC50 [17]: 13.7 µM (active)
AC50 (Paired box protein Pax-8): 3.02 µM (active)

COc1ccc(CC(=O)Nc2ccncc2Cl)cc1
IC50 (HEK293 [18]): > 20 µM (inactive)
AC50 [19]: 57.3 µM (active)
EC50 (HEK293 [20]): 4.73 µM (active)
IC50 (HEK293 [21]): 14 µM (active)
AC50 [22]: 2.12 µM (active)
IC50 (HEK293 [23]): > 20 µM (inactive)
IC50 (HEK293 [24]): 17.8 µM (inactive)
AC50 (INS1; Rattus norvegicus, INS1): 5.67 µM (active)
EC50 [25]: 14.9 µM (active)
AC50 [26]: 2.13 µM (active)

Cc1ccc(-c2c[n+](-c3ccccc3)c3n2CCCS3)cc1
IC50 [27]: > 80 µM (inactive)
IC50 [3]: 17.4 µM (inactive)
EC50 [6]: 0.709 µM (active)
AC50 (INS1; Rattus norvegicus, INS1): 2.26 µM (active)
AC50 (INS1; ins1): 1.92 µM (active)
EC50 [7]: 50.9 µM (active)

Cc1ccc(S(=O)(=O)NCC(=O)N(CC(=O)NC2CCCC2)c2ccc3c(c2)OCCO3)cc1
IC50 [28]: > 109 µM (inactive)
IC50 [29]: > 83.3 µM (inactive)

C=CCn1cc(C(=O)NCc2ccc3c(c2)OCO3)c(=O)c2cc(S(=O)(=O)N(CC)CC)ccc21
IC50 (Prothrombin): 19.2 µM (active)

COc1ccc(NC(=O)N2CCCCN3[C@@H](CO)[C@H](c4ccc(-c5ccccc5F)cc4)[C@@H]3C2)cc1
AC50 [30]: 2.72 µM (active)

O=C(O)Cc1ccccc1C(=O)O [2-CARBOXYBENZENEACETIC ACID]
IC50 (Prothrombin): > 50 µM (not active)

O=C(NC(=S)Nc1ccccc1N1CCCC1)c1ccc([N+](=O)[O-])cc1
EC50 [5]: 3.24 µM (active)
IC50 [31]: 44.6 µM (inactive)
IC50 (Beta-galactosidase): > 66.6 µM (inactive)

CCc1ccc(C(=O)CN(C#N)c2nc(C)cc(C)n2)cc1
AC50 (Cytochrome P450 3A4): 25.1 µM (inconclusive)
AC50 (Cytochrome P450 2C9): inconclusive
AC50 [32]: 19.3 µM (active)

COC(=O)c1cc(NC(=O)c2ccc(-c3ccccc3)cc2)ccc1Cl
IC50 [28]: > 109 µM (inactive)
IC50 [29]: > 83.3 µM (inactive)
